Measured values: patent US10047080B2, “(R)-2-methyl-piperazine derivatives as CXCR3 receptor modulators” (Idorsia Pharmaceuticals Ltd., priority 2015, dated 2018)

Tests used:
Format in all cases: cell-based
hERG K channel = hERG K channel (Homo sapiens (Human), UniProt Q12809); assay: hERG Q-Patch assay; conditions: CHO cells expressing hERG, K+ tail current
Description: Compounds are evaluated for block of the hERG K channel using CHO cells stably expressing the hERG gene (accession number U04270, bSys, Witterswil, Switzerland) and the QPatch robotic platform (Sophion, Ballerup, Denmark) in single-cell mode at room temperature. Cells are grown in culture flasks at 37° C. in 5% CO2, in culture medium (Ham's F-12 Nutrient Mixture, Invitrogen 21765-029) supplemented with 9% (v/v) fetal calf serum, 0.9% Penicillin/Streptomycin (10,000 U/mL, Invitrogen 15140148), 100 μg/mL Hygromycin B (Invitrogen 10687010). When the cells are ˜80% confluent (every 2-3 days), they are either split for further culture or used for electrophysiology. For further culture, cells are detached with 0.25% Trypsin EDTA solution (Invitrogen 25200-056) and a fraction of the cells (10-30%) is reseeded in culture medium. For electrophysiology, on the experimental day, cells are detached with 0.25% Trypsin EDTA solution and all cells are suspended in suspension medium (293 SFM II, Invitrogen 11686-029) supplemented with 20 mM HEPES and 0.04 mg/mL Trypsin inhibitor. Cells are kept in suspension medium at 32-35° C. in the QPatch robot until use, at which time aliquots are transferred to the extracellular solution (in mM: NaCl 150; KCl 4; CaCl2 1.2; MgCl2 1; HEPES 10; pH 7.4 with NaOH) containing 0.3% v/v DMSO and applied to the test plates. K+ currents are measured with the patch-voltage-clamp technique in the whole-cell configuration with the internal solution (in mM: KCl, 140; NaCl, 10; MgCl2, 1; HEPES, 10; EGTA, 5; pH=7.2 with KOH). Currents are low-pass filtered using the internal Bessel filter of the QPatch robot with a cut-off frequency of 2 kHz and are digitized at 10 kHz. K^+ tail currents are produced from a holding voltage of −80 mV by a 500-ms depolarization to +20 mV followed by a 500-ms repolarization to −40 mV; tail current amplitudes are measured at the end of the repolarization to −40 mV. The pulse pattern is repeated every 10 sec during the experiment, baseline K^+ current is measured after 3 min in extracellular solution, test-solution containing compound is then applied, and K^+ current in presence of compound is measured 3 minutes after application to the cells. The respective test-solution is prepared by (1) dissolving the test-compound in pure DMSO, (2) diluting this DMSO solution in extracellular solution, and (3) adding further DMSO, such that the final test-solution has a concentration of either 300 nM or 3000 nM of the test-compound and contains 0.3% v/v DMSO. Compound effects are quantified as % block by dividing the current in presence of compound by the baseline current; two or three experiments are performed for each compound and the final value represents the mean of the results of each experiment.

CXCR3 = CXCR3 (Homo sapiens (Human), UniProt P49682); assay: Receptor internalization assay (RIA) in human whole blood; conditions: final CXCL10 9 nM, CXCR3 surface expression on CD4 positive cells
Description: Stock solutions of test compounds are made up at a concentration of 10 mM in DMSO, and serially diluted in PBS containing 0.5% BSA to concentrations required for inhibition dose response curves. Diluted compounds are then mixed with an equal volume of CXCL10 (Peprotech) diluted in PBS. Anticoagulated venous human whole blood is added to the mixture, which is then incubated in a CO2 incubator at 37° C. to allow for ligand mediated receptor internalization (final CXCL10 concentration is 9 nM). After 30 min, the blood is mixed with fluorescently labeled CXCR3 and CD4 specific antibodies (Becton Dickinson) and incubated on ice for 10 minutes. Samples are then mixed with BD FACS Lysing Solution (Becton Dickinson) in order to eliminate red blood cells. After washing the cells with PBS containing 0.5% BSA, the samples are then analyzed in a flow cytometer (FACS Canto II, Becton Dickinson). For data analysis using FACSDiva software (Becton Dickinson), the mean fluorescence corresponding to CXCR3 cell surface expression was determined on CD4 positive cells.
(§1) The calculated IC50 values may fluctuate depending on the daily assay performance. Fluctuations of this kind are known to those skilled in the art. In the case where IC50 values have been determined several times for the same compound, mean values are given. Data for the FLIPR assay are shown in Table 1 and for the receptor internalization assay (RIA) in Table 2.

human CXCR3A = human CXCR3A (Homo sapiens (Human), UniProt P49682); assay: FLIPR assay (calcium flux, CXCL10-induced); conditions: CHO-K1 cells expressing human CXCR3A coupled to Galpha(16); CXCL10 agonist at 20 nM
Description: The bioactivity of compounds is tested in a fluorometric imaging plate reader (FLIPR: Molecular Devices) using engineered CHO-K1 cells expressing the human CXCR3A (GenBank: AY242128) coupled to a G protein (Galpha(16)). Cells are plated the day prior to bioassay in F12 medium supplemented with 10% FBS and G418 and hygromycin antibiotics to maintain recombinant selection. At the day of bioassay, cells are washed and dye loaded for one hour with Fluo-4-AM (Invitrogen) in Hanks Balanced Salt Solution (Invitrogen), buffered with 20 mM Hepes at pH 7.4 and sodium bicarbonate (0.038%), containing 5 mM probenecid. This buffer, but lacking the dye and containing probenecid at a concentration of 2.5 mM, is also used for washing steps (wash buffer); or lacking both dye and probenecid but supplemented with 0.1% BSA for compound dilution steps (dilution buffer). Cells are washed free of excess dye and 60 microliter of wash buffer is added. Stock solutions of test compounds are made up at a concentration of 10 mM in DMSO, and serially diluted in dilution buffer to concentrations required for inhibition dose response curves. After a 10 minute incubation period at 37° C., 10 microliters of each compound dilution are transferred from a compound plate to the plate containing the recombinant cells in the FLIPR instrument according to the manufacturer's instructions. Following basal readings, 10 microliter CXCL10 agonist at a concentration of 20 nM (from Peprotech) is added, again using the FLIPR instrument. Changes in fluorescence are monitored before and after addition of the test compounds. Emission peak values above base level after CXCL10 addition are exported after base line subtraction.
as §1

Sequence of CXCR3 (P49682 whole entry): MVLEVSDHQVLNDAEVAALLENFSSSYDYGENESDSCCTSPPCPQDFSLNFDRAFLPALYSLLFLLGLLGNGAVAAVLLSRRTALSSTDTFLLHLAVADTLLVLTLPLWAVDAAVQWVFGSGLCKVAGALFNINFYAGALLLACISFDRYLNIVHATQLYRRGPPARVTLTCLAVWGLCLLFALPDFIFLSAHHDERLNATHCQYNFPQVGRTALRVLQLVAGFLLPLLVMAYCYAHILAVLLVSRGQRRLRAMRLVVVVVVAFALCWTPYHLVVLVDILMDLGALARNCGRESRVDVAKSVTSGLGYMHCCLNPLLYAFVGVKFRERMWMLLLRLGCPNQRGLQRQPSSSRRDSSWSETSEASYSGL
Sequence of human CXCR3A (P49682 whole entry): as above
Sequence of hERG K channel (Q12809 whole entry): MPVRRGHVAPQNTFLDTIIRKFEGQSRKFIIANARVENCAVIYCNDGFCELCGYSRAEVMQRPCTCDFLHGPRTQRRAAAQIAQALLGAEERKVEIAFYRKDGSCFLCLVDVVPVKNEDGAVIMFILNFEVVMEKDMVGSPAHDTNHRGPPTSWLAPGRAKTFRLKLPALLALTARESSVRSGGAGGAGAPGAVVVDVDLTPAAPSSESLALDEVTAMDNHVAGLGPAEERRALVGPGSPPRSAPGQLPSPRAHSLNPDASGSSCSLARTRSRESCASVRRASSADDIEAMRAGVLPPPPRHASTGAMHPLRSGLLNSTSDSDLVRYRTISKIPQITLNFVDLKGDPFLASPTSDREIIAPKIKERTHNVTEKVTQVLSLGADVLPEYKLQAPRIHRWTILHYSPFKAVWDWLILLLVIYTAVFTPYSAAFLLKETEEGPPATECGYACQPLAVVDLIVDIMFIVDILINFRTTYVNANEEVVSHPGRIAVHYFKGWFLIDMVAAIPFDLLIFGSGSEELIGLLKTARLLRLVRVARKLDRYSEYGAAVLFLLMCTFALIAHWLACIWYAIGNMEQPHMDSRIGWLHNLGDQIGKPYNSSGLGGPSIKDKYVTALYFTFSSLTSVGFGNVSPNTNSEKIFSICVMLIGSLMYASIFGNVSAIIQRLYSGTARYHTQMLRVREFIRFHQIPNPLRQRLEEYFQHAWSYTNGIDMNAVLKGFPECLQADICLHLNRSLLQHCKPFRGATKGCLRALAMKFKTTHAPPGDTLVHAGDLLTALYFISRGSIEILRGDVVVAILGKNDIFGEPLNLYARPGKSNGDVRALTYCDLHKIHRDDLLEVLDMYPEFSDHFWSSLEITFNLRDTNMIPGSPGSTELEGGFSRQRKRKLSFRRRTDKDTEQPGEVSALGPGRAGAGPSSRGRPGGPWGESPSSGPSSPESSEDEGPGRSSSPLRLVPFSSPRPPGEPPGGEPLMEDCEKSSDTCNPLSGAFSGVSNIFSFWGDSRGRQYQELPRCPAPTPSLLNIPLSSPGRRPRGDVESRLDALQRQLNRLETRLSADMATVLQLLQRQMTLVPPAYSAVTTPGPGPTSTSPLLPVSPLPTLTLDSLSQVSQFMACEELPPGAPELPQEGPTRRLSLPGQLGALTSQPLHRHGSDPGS

IC50 (CXCR3) | IC50 (human CXCR3A) | SMILES | % block (hERG K channel; concentration 300 nM) | % block (hERG K channel; concentration 3000 nM)
299 nM | 2.3 nM | CCOc1ncc(-c2nc(C(F)(F)F)sc2N2CCN(C(=O)Cn3cnc(C(C)C)n3)[C@H](C)C2)cn1 [Example 1, 1-{(R)-4-[4-(2-Ethoxy-pyrimidin-5-yl)-2-trifluoromethyl-thiazol-5-yl]-2-methyl-piperazin-1-yl}-2-(3-isopropyl-[1,2,4]triazol-1-yl)-ethanone] | 6% | 20%
235 nM | 1.6 nM | CCOc1ncc(-c2nc(C(F)(F)F)sc2N2CCN(C(=O)Cn3cnc(CC)n3)[C@H](C)C2)cn1 [Example 2, 1-{(R)-4-[4-(2-Ethoxy-pyrimidin-5-yl)-2-trifluoromethyl-thiazol-5-yl]-2-methyl-piperazin-1-yl}-2-(3-ethyl-[1,2,4]triazol-1-yl)-ethanone] | −2% | 4%
552 nM | 1 nM | CCOc1ncc(-c2nc(C(F)(F)F)sc2N2CCN(C(=O)Cn3cnc(C(C)(C)C)n3)[C@H](C)C2)cn1 [Example 3, 2-(3-tert-Butyl-[1,2,4]triazol-1-yl)-1-{(R)-4-[4-(2-ethoxy-pyrimidin-5-yl)-2-trifluoromethyl-thiazol-5-yl]-2-methyl-piperazin-1-yl}-ethanone] | 10% | 20%
950 nM | 13 nM | CCOc1ncc(-c2nc(C(F)(F)F)sc2N2CCN(C(=O)Cn3cnc(COC)n3)[C@H](C)C2)cn1 [Example 4, 1-{(R)-4-[4-(2-Ethoxy-pyrimidin-5-yl)-2-trifluoromethyl-thiazol-5-yl]-2-methyl-piperazin-1-yl}-2-(3-methoxymethyl-[1,2,4]triazol-1-yl)-ethanone] | 5% | 10%
1710 nM | 12 nM | C[C@@H]1CN(c2sc(C(F)(F)F)nc2-c2cnc(C(F)(F)F)nc2)CCN1C(=O)Cn1cnc(C(N)=O)n1 [Example 5, 1-(2-{(R)-2-Methyl-4-[2-trifluoromethyl-4-(2-trifluoromethyl-pyrimidin-5-yl)-thiazol-5-yl]-piperazin-1-yl}-2-oxo-ethyl)-1H-[1,2,4]triazole-3-carboxylic acid amide] | 1% | 5%
148 nM | 2 nM | CCc1ncn(CC(=O)N2CCN(c3sc(C(F)(F)F)nc3-c3cnc(C(F)(F)F)nc3)C[C@H]2C)n1 [Example 6, 2-(3-Ethyl-[1,2,4]triazol-1-yl)-1-{(R)-2-methyl-4-[2-trifluoromethyl-4-(2-trifluoromethyl-pyrimidin-5-yl)-thiazol-5-yl]-piperazin-1-yl}-ethanone] | 5% | 22%
174 nM | 1.3 nM | CC(C)c1ncn(CC(=O)N2CCN(c3sc(C(F)(F)F)nc3-c3cnc(C(F)(F)F)nc3)C[C@H]2C)n1 [Example 7, 2-(3-Isopropyl-[1,2,4]triazol-1-yl)-1-{(R)-2-methyl-4-[2-trifluoromethyl-4-(2-trifluoromethyl-pyrimidin-5-yl)-thiazol-5-yl]-piperazin-1-yl}-ethanone] | 5% | 24%
349 nM | 1.6 nM | C[C@@H]1CN(c2sc(C(F)(F)F)nc2-c2cnc(C(F)(F)F)nc2)CCN1C(=O)Cn1cnc(C(C)(C)C)n1 [Example 8, 2-(3-tert-Butyl-[1,2,4]triazol-1-yl)-1-{(R)-2-methyl-4-[2-trifluoromethyl-4-(2-trifluoromethyl-pyrimidin-5-yl)-thiazol-5-yl]-piperazin-1-yl}-ethanone] | 4% | 23%
606 nM | 2.7 nM | COCc1ncn(CC(=O)N2CCN(c3sc(C(F)(F)F)nc3-c3cnc(C(F)(F)F)nc3)C[C@H]2C)n1 [Example 9, 2-(3-Methoxymethyl-[1,2,4]triazol-1-yl)-1-{(R)-2-methyl-4-[2-trifluoromethyl-4-(2-trifluoromethyl-pyrimidin-5-yl)-thiazol-5-yl]-piperazin-1-yl}-ethanone] | 2% | 11%
809 nM | 5.2 nM | C[C@@H]1CN(c2sc(C(F)(F)F)nc2-c2cnc(C(F)(F)F)nc2)CCN1C(=O)Cn1cnc(CO)n1 [Example 10, 2-(3-Hydroxymethyl-[1,2,4]triazol-1-yl)-1-{(R)-2-methyl-4-[2-trifluoromethyl-4-(2-trifluoromethyl-pyrimidin-5-yl)-thiazol-5-yl]-piperazin-1-yl}-ethanone] | 6% | 17%
221 nM | 4.4 nM | CCCc1ncn(CC(=O)N2CCN(c3sc(C(F)(F)F)nc3-c3cnc(C(F)(F)F)nc3)C[C@H]2C)n1 [Example 11, 1-{(R)-2-Methyl-4-[2-trifluoromethyl-4-(2-trifluoromethyl-pyrimidin-5-yl)-thiazol-5-yl]-piperazin-1-yl}-2-(3-propyl-[1,2,4]triazol-1-yl)-ethanone] | 5% | 30%
564 nM | 0.9 nM | CC(O)c1ncn(CC(=O)N2CCN(c3sc(C(F)(F)F)nc3-c3cnc(C(F)(F)F)nc3)C[C@H]2C)n1 (stereo partly drawn) [Example 12, 2-[3-(1-Hydroxy-ethyl)-[1,2,4]triazol-1-yl]-1-{(R)-2-methyl-4-[2-trifluoromethyl-4-(2-trifluoromethyl-pyrimidin-5-yl)-thiazol-5-yl]-piperazin-1-yl}-ethanone] | 0% | 4%
830 nM | 3.2 nM | C[C@@H]1CN(c2sc(C(F)(F)F)nc2-c2cnc(C(F)(F)F)nc2)CCN1C(=O)Cn1cnc(C(C)(C)O)n1 [Example 13, 2-[3-(1-Hydroxy-1-methyl-ethyl)-[1,2,4]triazol-1-yl]-1-{(R)-2-methyl-4-[2-trifluoromethyl-4-(2-trifluoromethyl-pyrimidin-5-yl)-thiazol-5-yl]-piperazin-1-yl}-ethanone] | 10% | 21%
